± gives the expanded uncertainty stated by the source.
Settings: 101.33 kPa, Liquid

With `CCCCCC[n+]1ccn(C)c1.O=S(=O)([N-]S(=O)(=O)C(F)(F)F)C(F)(F)F` the mass density (290.95 K) was 1378.1 ± 0.8 kg/m3, the mass density (292.95 K) was 1376.3 ± 0.8 kg/m3 and the mass density (294.95 K) was 1374.4 ± 0.8 kg/m3. The mass density (296.95 K) was 1372.6 ± 0.8 kg/m3, the mass density (299 K) was 1370.8 ± 0.8 kg/m3 and the mass density (301 K) was 1369 ± 0.8 kg/m3. The mass density (303 K) was 1367.2 ± 0.8 kg/m3, the mass density (305.05 K) was 1365.3 ± 0.8 kg/m3 and the mass density (307.05 K) was 1363.5 ± 0.8 kg/m3.
